Reference: patent US20040053974A1, “Medicinal compositions containing diuretic and insulin resistance-improving agent” (priority 2000, published 2004)
Marks after values point to notes of the source that are not given here.

How the values were obtained:
Type in all cases: in vivo, rat
[1] = system: female Wistar rats; test: Co-administration of furosemide with compound A: circulating serum volume, heart-weight, edema and hydrothorax (macroscopic observation)
Protocol: 5-[4-(6-Methoxy-1-methyl-1H-benzimidazol-2-ylmethoxy)benzyl]thiazolidine-2,4-dione hydrochloride (200 mg/kg) was repeatedly and orally administered by gavage for 3 or 7 successive days to female Wistar rats (7 weeks old, Charles River Japan, Inc.) and furosemide (120 mg/kg and 240 mg/kg) was dietarily administered during the period.

[2] = system: Zucker fatty rats; test: Co-administration of furosemide or amiloride with compound A for 14 days: blood parameters, heart-weight, circulating serum volume; settings: for blood dilution (decreases in hematocrit value and the number of red blood cells) caused by compound A / increases in circulating serum volume caused by compound A / increases in heart-weight caused by compound A: orally 14 days, 1 ml/kg of furosemide 100 mg/ml or amiloride 10 mg/ml
Protocol: Zucker fatty rats (7 weeks old, SLC, Shizuoka, Japan) were grouped as 5 rats a group. Mean body weight, plasma glucose and glyceride levels, hematocrit value, and the number of red blood cells in each group were similar among the groups. The rats were allowed to take food pellets (F2, Funabashi Farm) and water ad libitum. In the control group, the rats were given only food pellets, while the rest of rats were administered 5-[4-(6-methoxy-1-methyl-1H-benzimidazol-2-ylmethoxy)benzyl]thiazolidine-2,4-dione hydrochloride (suspended in 0.5% solution of carboxymethylcellulose (CMC)) at a volume of 1 ml/kg orally by gavage. In the groups of rats administered the above compound with furosemide (100 mg/ml, suspended in 0.5% CMC solution) or amiloride (10 mg/ml, suspended in distilled water), these diuretics were orally administered by gavage for 14 successive days at a volume of 1 ml/kg. After the final administration, the rats were fasted overnight, and their blood was collected from the tail vein with a capillary treated with heparin and EDTA on the 15th day.
Plasma glucose level and blood cell parameters were determined using an automatic analyzer (plasma glucose: Glucoloader GX-T, A&T Corp., blood cell parameters: K-1000, Sysmex Corporation, Kobe, Japan). Triglyceride was detected by the absorbance method with a kit (Triglyceride-E Test Wako, Wako Pure Chemical Industries, Ltd.). Concentrations of insulin and leptin were detected with RIA kits (Rat Insulin RIA Kit, Linco Research Inc.). Furthermore, circulating serum volume was determined by the dilution method using Evans blue.

[3] = system: female Wistar rats; test: Heart-weight and circulating serum volume (Evans blue method) after repeated oral administration; settings: for Ratio against control Heart-Weight / Ratio against control Circulating Serum volume: 200 mg/kg orally by gavage, female Wistar rats
Protocol: After 5-[4-(6-methoxy-1-methyl-1H-benzimidazol-2-ylmethoxy)benzyl]thiazolidine-2,4-dione hydrochloride (200 mg/kg) was repeatedly and orally administered by gavage for 3 or 7 successive days to female Wistar rats (7 weeks old, Charles River Japan, Inc.), circulating serum volume was determined by Evans blue methods and heart-weight recorded.

[4] = Furosemide 120 mg/kg dietary, co-administered with Compound A 200 mg/kg orally, female Wistar rats
[5] = Furosemide 240 mg/kg dietary, co-administered with Compound A 200 mg/kg orally, female Wistar rats
[6] = furosemide 120 and 240 mg/kg dietary co-administered with compound A 200 mg/kg
[7] = furosemide 120 and 240 mg/kg dietary co-administered with compound A 200 mg/kg, FIG. 1
[8] = co-administered with compound A, Zucker fatty rats
[9] = Compound A 200 mg/kg orally, Furosemide 0, female Wistar rats
[10] = orally by gavage, 14 successive days, Zucker fatty rats, FIG. 2
[11] = 7 successive days, n = 12, p < 0.01
[12] = 200 mg/kg orally, after administration for both 3 and 7 days

NS(=O)(=O)c1cc(C(=O)O)c(NCc2ccco2)cc1Cl [Furosemide, furosemide]
Macroscopic Observation, Edema: Subcutaneous tissue (incidence) [1, 4]: 0/12 | Macroscopic Observation, Edema: brown adipose tissue (incidence) [1, 4]: 12/12 | Macroscopic Observation, Edema: interstitial tissue of thymus (incidence) [1, 4]: 0/12 | Macroscopic Observation, Hydrothorax (incidence) [1, 4]: 2/12 | mean weight of thymus [1, 4]: 450.6 mg | Macroscopic Observation, Edema: Subcutaneous tissue (incidence) [1, 5]: 0/12 | Macroscopic Observation, Edema: brown adipose tissue (incidence) [1, 5]: 10/12 | Macroscopic Observation, Edema: interstitial tissue of thymus (incidence) [1, 5]: 0/12 | Macroscopic Observation, Hydrothorax (incidence) [1, 5]: 0/12 | mean weight of thymus [1, 5]: 375.9 mg | Decreases in the number of circulating red blood cells produced by compound A [1, 6]: prevented | edema and hydrothorax associated with administration of compound A [1, 6]: suppressed | increases in circulating serum volume elicited by compound A [1, 7]: suppressed | increases in heart-weight elicited by compound A [1, 7]: suppressed | blood dilution (decreases in hematocrit value and the number of red blood cells) caused by compound A [2, 8]: suppressed | increases in circulating serum volume caused by compound A [2, 8]: suppressed | increases in heart-weight caused by compound A [2, 8]: suppressed

N=C(N)NC(=O)c1nc(Cl)c(N)nc1N [amiloride]
ameliorating effects compared with furosemide ([2]; amiloride at 1/10 the dose of furosemide, co-administered with compound A, Zucker fatty rats): at least as potent as those of furosemide | blood dilution (decreases in hematocrit value and the number of red blood cells) caused by compound A [2, 8]: suppressed | increases in circulating serum volume caused by compound A [2, 8]: suppressed | increases in heart-weight caused by compound A [2, 8]: suppressed | suppression of side effects caused by insulin sensitizers, relative to diuretic action ([2]; rats co-treated with amiloride and compound A): more potent than those predicted from its diuretic action

COc1ccc2nc(COc3ccc(CC4SC(=O)NC4=O)cc3)n(C)c2c1.Cl (stereo not shown) [compound A, 5-[4-(6-methoxy-1-methyl-1H-benzimidazol-2-ylmethoxy)benzyl]thiazolidine-2,4-dione hydrochloride]
Macroscopic Observation, Edema: Subcutaneous tissue (incidence) [1, 9]: 1/12 | Macroscopic Observation, Edema: brown adipose tissue (incidence) [1, 9]: 12/12 | Macroscopic Observation, Edema: interstitial tissue of thymus (incidence) [1, 9]: 1/12 | Macroscopic Observation, Hydrothorax (incidence) [1, 9]: 6/12 | mean weight of thymus [1, 9]: 521.4 mg | number of circulating red blood cells ([1]; compound A 200 mg/kg orally, female Wistar rats): Decreases | blood glucose levels ([2]; orally by gavage, 14 successive days, Zucker fatty rats): decreasing | HOMA-R, an indicator of insulin resistance [2, 10]: remarkably decreased | heart-weight [2, 10]: increases | hematocrit value (dilution of the blood) [2, 10]: decreases | number of red blood cells (dilution of the blood) [2, 10]: decreases | triglyceride levels [2, 10]: remarkably decreased | Ratio against control Heart-Weight ([3]; 3 successive days, n = 5-6): 1.03^a) | Ratio against control Circulating Serum volume ([3]; 3 successive days, n = 5-6, p < 0.05): 1.18^a)* | Ratio against control Circulating Serum volume [3, 11]: 1.30^b)** | Ratio against control Heart-Weight [3, 11]: 1.22^b)** | Circulating serum volume [3, 12]: increased | heart-weight [3, 12]: increased
